Measurements reported in patent publication US11168069B2, “Heterocyclylsulfonyl-substituted pyridines and their use in the treatment of cancer” (Oblique Therapeutics AB, priority 2017, dated 2021).

Key:
U-87 MG = assay: Cancer cell viability assay (MTT), U-87 MG; format: cell-based; settings: Homo sapiens, 72 hrs, 10% FBS media
Experimental: (§1) Breast cancer and glioblastoma cell lines were plated 4000 cells/well in 96-well plates in the presence of 10% FBS media. The following day cells were treated with various concentrations of example compounds (0.1% DMSO final) and incubated for 72 hrs. After the incubation An MTT assay was performed to access cell viability. Percent of viability was determined using DMSO vehicle and no cell (blank) controls.

MDA-MB-468 = assay: Cancer cell viability assay (MTT), MDA-MB-468; format: cell-based; settings: Homo sapiens, 72 hrs, 10% FBS media
Experimental: as §1

MDA-MB-231 = assay: Cancer cell viability assay (MTT), MDA-MB-231; format: cell-based; settings: Homo sapiens, 72 hrs, 10% FBS media
Experimental: as §1

[1] = biological target: recombinant gluthathione reductase (GR) (Homo sapiens (Human), UniProt P00390); assay: Inhibition of recombinant GR (GSSG assay); format: biochemical; settings: 2 nM GR, 250 μM NADPH, 15 minutes incubation, O.D. 340 nm
Sequence of recombinant gluthathione reductase (GR) (P00390 44-522): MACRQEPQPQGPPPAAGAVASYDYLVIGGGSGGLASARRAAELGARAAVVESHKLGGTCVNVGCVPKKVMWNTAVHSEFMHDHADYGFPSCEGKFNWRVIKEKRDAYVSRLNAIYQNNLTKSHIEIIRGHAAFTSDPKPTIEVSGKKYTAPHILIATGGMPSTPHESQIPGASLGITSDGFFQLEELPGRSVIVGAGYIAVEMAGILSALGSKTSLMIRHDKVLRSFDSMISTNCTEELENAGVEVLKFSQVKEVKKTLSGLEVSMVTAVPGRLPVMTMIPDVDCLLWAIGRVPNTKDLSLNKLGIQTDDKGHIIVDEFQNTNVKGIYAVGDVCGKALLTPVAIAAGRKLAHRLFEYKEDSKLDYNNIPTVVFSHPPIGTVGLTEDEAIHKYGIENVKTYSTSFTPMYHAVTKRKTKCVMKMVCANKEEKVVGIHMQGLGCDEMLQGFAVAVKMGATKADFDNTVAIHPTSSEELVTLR
Experimental: (§2) Small molecule inhibition of recombinant thioredoxin reductase 1 (TrxR1) and gluthathione reductase (GR) was examined in 96-well plate format. 30 nM TrxR1 was incubated in the presence of 250 μM NADPH, 0.1 mg/ml BSA, and various concentrations of compound (1% DMSO final) in 50 mM Tris (pH 7.5) and 2 mM EDTA buffer for 15 minutes. Following the incubation period, 2 mM DTNB was added to each well and the change in O.D. at 412 nm was followed. Percent activity was determined using DMSO vehicle and no TrxR1 (blank) controls. 2 nM GR was incubated in the presence of 250 μM NADPH, 0.1 mg/ml BSA, and various concentrations of compounds (1% DMSO final) in 50 mM Tris (pH 7.5) and 2 mM EDTA buffer for 15 minutes. Following the incubation period, 1 mM GSSG was added to each well and the change in O.D. at 340 nm was followed. Percent activity was determined using DMSO vehicle and no GR (blank) controls.

[2] = biological target: recombinant thioredoxin reductase 1 (TrxR1) (Homo sapiens (Human), UniProt Q16881); assay: Inhibition of recombinant TrxR1 (DTNB assay); format: biochemical; settings: 30 nM TrxR1, 250 μM NADPH, 15 minutes incubation, O.D. 412 nm, read-out: TrxR Assay IC50
Sequence of recombinant thioredoxin reductase 1 (TrxR1) (Q16881 151-649): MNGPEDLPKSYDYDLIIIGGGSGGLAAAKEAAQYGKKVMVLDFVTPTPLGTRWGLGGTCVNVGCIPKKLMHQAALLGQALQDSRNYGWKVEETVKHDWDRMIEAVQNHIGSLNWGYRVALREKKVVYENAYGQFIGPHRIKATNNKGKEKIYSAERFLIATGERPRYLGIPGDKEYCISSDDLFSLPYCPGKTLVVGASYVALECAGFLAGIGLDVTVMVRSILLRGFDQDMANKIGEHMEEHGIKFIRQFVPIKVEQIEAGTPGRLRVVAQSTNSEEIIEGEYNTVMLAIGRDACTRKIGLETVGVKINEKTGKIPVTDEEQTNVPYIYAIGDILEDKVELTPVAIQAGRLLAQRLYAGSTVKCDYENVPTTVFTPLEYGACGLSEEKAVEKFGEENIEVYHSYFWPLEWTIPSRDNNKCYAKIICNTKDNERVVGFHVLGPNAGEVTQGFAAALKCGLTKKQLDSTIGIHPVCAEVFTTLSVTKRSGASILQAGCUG
Experimental: as §2

MDA-MB-231 cells = assay: Breast cancer cell viability assay (Alamar Blue); format: cell-based; settings: Homo sapiens, 72 hrs, 10% FBS media containing 25 nM selenite
Experimental: MDA-MB-231 cells were plated 2000 cells/well in 96-well black optical plates in the presence of 10% FBS media containing 25 nM selenite. The following day cells were treated with various concentrations of compounds (0.1% DMSO final) and incubated for 72 hrs. After the incubation Alamar Blue reagent was added to each well and incubated for additional 3 hrs. Fluorescence was read ex:530 nm/em:590 nm, and percent of viability was determined using DMSO vehicle and no cell (blank) controls.

Row | Compound | IC50 (U-87 MG) | IC50 (MDA-MB-468) | IC50 (MDA-MB-231) | IC50 [1] | IC50 [2] | IC50 (MDA-MB-231 cells)
1 | COc1ccc([N+](=O)[O-])c([S+]([O-])C2CCOC2C)n1 (stereo not shown) [Example 4, 6-Methoxy-2-(2-methyl-tetrahydro-furan-3-ylsulfinyl)-3-nitro-pyridine] | 9.27 µM | 2.1 µM | 3.54 µM | > 100 µM | 1.01 µM | 
2 | COc1ccc([N+](=O)[O-])c(S(=O)(=O)C2CCOC2C)n1 (stereo not shown) [Example 1] | 8.89 µM | 4.14 µM | 8.94 µM | > 100 µM | 0.093 µM | 4.53 µM
3 | COc1ccc([N+](=O)[O-])c(S(=O)(=O)C2CCOCC2)n1 [Example 3, 6-methoxy-3-nitro-2-((tetrahydro-2H-pyran-4-yl)sulfonyl)pyridine] | 6.11 µM | 4.34 µM | 7.53 µM | > 100 µM | 0.0391 µM | 5.08 µM
4 | COc1ccc([N+](=O)[O-])c(S(=O)(=O)C2CCN(C(C)=O)CC2)n1 [Example 2, 1-(4-((6-methoxy-3-nitropyridin-2-yl)sulfonyl)piperidin-1-yl)ethan-1-one] | 10.6 µM | 4 µM | 9.97 µM | > 100 µM | 0.391 µM | 12.3 µM

Continued, values first:

Row | IC50 (U-87 MG) | IC50 (MDA-MB-468) | IC50 (MDA-MB-231) | IC50 [1] | IC50 [2] | IC50 (MDA-MB-231 cells) | Compound
5 |  | 5.58 µM | 11.6 µM | > 100 µM | 4.06 µM |  | COc1ccc([N+](=O)[O-])c([S+]([O-])C2CCN(C(C)=O)CC2)n1 (stereo not shown) [Example 6, 1-[4-(6-Methoxy-3-nitro-pyridin-2-ylsulfinyl)-piperidin-1-yl]-ethanone]
6 |  | 2.4 µM | 3.57 µM | > 100 µM | 4.33 µM |  | COc1ccc([N+](=O)[O-])c([S+]([O-])C2CCOCC2)n1 (stereo not shown) [Example 5, 6-Methoxy-3-nitro-2-(tetrahydro-pyran-4-ylsulfinyl)-pyridine]
